In article PMC3994528, “GE23077 binds to the RNA polymerase ‘i’ and ‘i+1’ sites and prevents the binding of initiating nucleotides” (eLife, 2014):
In brackets after ≈: the same amount, converted by molar mass.

Columns and labels:
[1] = target: T1, E. coli RNAP holoenzyme ([F^517]σ^70-RNAP holoenzyme) (Escherichia coli, UniProt P0A8T7+P0A8V2); experiment: Fluorescence-detected RNAP-Rif interaction assay; type: binding
T1 construct: made in house
Procedure: (§1) RNAP-Rif interaction assays were performed as in [Feklistov et al. (2008)]. The assays monitored the quenching of the fluorescence emission of fluorescein incorporated into RNAP holoenzyme at σ^70 residue 517 (serving as a fluorescence-resonance-energy-transfer donor) by the naphthyl moiety of Rif (serving as a fluorescence-resonance-energy-transfer acceptor; [Knight et al., 2005]; [Feklistov et al., 2008]). Fluorescence measurements were performed using a QuantaMaster QM1 spectrofluorometer (PTI, Edison, NJ) (excitation wavelength = 480 nm; emission wavelength = 530 nm; and excitation and emission slit widths = 5 nm).
For determination of association kinetics, 720 μl 2 nM [F^517]σ^70-RNAP holoenzyme and 0-2 μM GE in 40 mM Tris–HCl, pH 8.0, 100 mM NaCl, 10 mM MgCl2, 1 mM DTT, 0.02% Tween-20, and 5% glycerol was incubated 15 min at 24°C and then mixed with 30 μl 0.01–0.5 μM Rif in the same buffer at 24°C in a cuvette chamber with a mixing dead time ∼0.5 s, and fluorescence emission intensities were monitored for 30 min at 24°C. On-rates for RNAP-Rif interaction, kon, were calculated by fitting data to: I=(I0−I∞)exp(−kobst)+I∞ where kobs is the observed association rate constant at a specified Rif concentration, I is the fluorescence emission intensity at time t, Io is the fluorescence emission intensity at t = 0, and I∞ is the fluorescence emission intensity at t = ∞; followed by fitting the Rif-concentration-dependence of kobs to: kobs=kon[Rif]+koff where koff is ≥0 but is otherwise unconstrained.
Off-rates for RNAP-Rif interaction, koff, were calculated as: I=I0+(I∞−I0)[1−exp(−kofft)] where I is the fluorescence emission intensity at time t, Io is the fluorescence intensity at t = 0, and I∞ is the fluorescence intensity at t = ∞.
Equilibrium dissociation constants for RNAP-Rif interaction, Kd, were calculated as koff/kon.
(§2) The equilibrium dissociation constant for RNAP-GE interaction, Ki, was calculated from the association-kinetics data, by fitting the GE-concentration-dependence of I∞ to: I∞=(I∞,max[GE])/(Ki+[GE])

E. coli RNAP core enzyme = target: T2, E. coli RNAP core enzyme (Escherichia coli, UniProt P0A8T7+P0A8V2); type: biochemical; conditions: 0.5 μM GE
T2 construct: purchased Epicentre, Madison, WI

[Asp565]β-RNAP = [Asp565]β-RNAP (Escherichia coli, UniProt P0A8T7+P0A8V2, E565D); experiment: Fluorescence-detected RNAP-Rif interaction assay, GE-resistant RNAP; type: binding
Procedure: as §1
(§3) For determination of association kinetics, 720 μl 2 nM [F^517]σ^70-RNAP holoenzyme and 0-2 μM GE in 40 mM Tris–HCl, pH 8.0, 100 mM NaCl, 10 mM MgCl2, 1 mM DTT, 0.02% Tween-20, and 5% glycerol was incubated 15 min at 24°C and then mixed with 30 μl 0.01–0.5 μM Rif in the same buffer at 24°C in a cuvette chamber with a mixing dead time ∼0.5 s, and fluorescence emission intensities were monitored for 30 min at 24°C. […]
as §2

[Lys684]β-RNAP [2] = target: T3, [Lys684]β-RNAP (Escherichia coli, UniProt P0A8T7+P0A8V2, N684K); experiment: as above; type: binding
Procedure: as §1, §3, §2

[3] = target: T4, Staphylococcus aureus RNAP (Staphylococcus aureus, UniProt P47768+Q2G0N5); experiment: biochemical
T4 construct: made in house

E. coli RNAP holoenzyme [4] = target: T5, E. coli RNAP holoenzyme (Escherichia coli, UniProt P0A8T7+P0A8V2); type: biochemical; conditions: 0.5 μM GE or 2.2 μM Rif; lacUV5(ICAP) promoter
[5] = tested on: Streptococcus pyogenes ATCC 12344; experiment: Antibacterial activity, MIC by broth microdilution; type: cell-based; conditions: ATCC12344
From the text: (§4) Minimum inhibitory concentrations (MICs) were quantified using broth microdilution assays ([Clinical and Laboratory Standards Institute, 2009]), using a starting cell density of 3 × 10^4 cfu/ml, LB broth ([Sambrook and Russell, 2001]), and an air atmosphere for E. coli D21f2tolC (tolC:Tn10 rfa lac28 proA23 trp30 his51 rpsL173 ampC tsx81; strain with cell-envelope defects resulting in increased susceptibility to hydrophobic agents, including GE; Fralick and Burns-Keliher, 1994; unpublished data), and using a starting cell density of 3 × 10^4 cfu/ml, Bacto Todd Hewitt broth (TH broth; BD Biosciences, San Jose, CA), and a 7% CO2/6% O2/4% H2/83% N2 atmosphere for S. pyogenes and M. catarrhalis.

[6] = tested on: Moraxella catarrhalis ATCC 25238; experiment: Antibacterial activity, MIC by broth microdilution; type: cell-based; conditions: ATCC25238
From the text: as §4

[7] = tested on: Escherichia coli D21f2tolC; experiment: Antibacterial activity, MIC by broth microdilution; type: cell-based; conditions: starting cell density 3 × 10^4 cfu/ml
From the text: as §4

E. coli RNAP holoenzyme [8] = target: T5, E. coli RNAP holoenzyme; type: biochemical; conditions: 0.5 μM GE; T7 A1 promoter
E. coli RNAP holoenzyme [9] = target: T5, E. coli RNAP holoenzyme; type: biochemical; conditions: 0.5 μM GE or 2.2 μM Rif; ApA primer and UTP
E. coli D21f2tolC = experiment: Resistance and cross-resistance levels, rpoB mutants from saturation mutagenesis (plasmid-borne), broth microdilution; type: cell-based, Escherichia coli
E. coli RNAP holoenzyme [10] = target: T5, E. coli RNAP holoenzyme; type: biochemical; conditions: halted TEC containing 29 nt RNA product
[11] = target: T6, Thermus thermophilus RNAP (Thermus thermophilus, UniProt Q8RQE8+Q8RQE9); experiment: biochemical
T6 construct: made in house

Escherichia coli RNAP = Escherichia coli RNAP (Escherichia coli, UniProt P0A8T7+P0A8V2); experiment: biochemical; type: biochemical; conditions: wild-type E. coli RNAP
[12] = target: T7, Mycobacterium tuberculosis RNAP (Mycobacterium tuberculosis, UniProt P9WGY7+P9WGY9); experiment: biochemical
T7 construct: made in house

S. pyogenes = experiment: Resistance levels, chromosomal GE^R mutants, broth microdilution; type: cell-based, Streptococcus pyogenes
Human RNAP I / II / III = experiment: Radiochemical assay with human RNAP I/II/III (HeLa nuclear extract); type: biochemical
Procedure: Radiochemical assays with human RNAP I/II/III were performed essentially as in [Sawadogo and Roeder (1985)]. Reaction mixtures contained (20 µl): 0–100 µM GE, 8 U HeLaScribe Nuclear Extract (Promega, Madison, WI), 1 µg human placental DNA (Sigma–Aldrich), 400 μM ATP, 400 μM [α^32P]UTP (0.11 Bq/fmol), 400 μM CTP, 400 μM GTP, 50 mM Tris–HCl, pH 8.0, 7 mM HEPES-NaOH, 70 mM (NH4)2SO4, 50 mM KCl, 12 mM MgCl2, 5 mM DTT, 0.1 mM EDTA, 0.08 mM phenylmethylsulfonyl fluoride, and 16% glycerol. Reaction components other than DNA and NTPs were pre-incubated 10 min at 30°C, DNA was added and reaction mixtures were incubated 15 min at 30°C, NTPs were added and reaction mixtures were incubated 60 min at 30°C. Reaction mixtures were spotted on DE81 filter discs (Whatman, Kent, UK; pre-wetted with water) and incubated 1 min at room temperature. Filters were washed with 3 × 3 ml Na2HPO4, 2 × 3 ml water, and 3 ml ethanol, using a filter manifold (Hoefer, Holliston, MA). Filters were placed in scintillation vials containing 10 ml Scintiverse BD Cocktail (Thermo Fisher, Waltham, MA), and radioactivity was quantified by scintillation counting (LS6500; Beckman–Coulter, Brea, CA).
Half-maximal inhibitory concentrations (IC50s) were calculated by non-linear regression in SigmaPlot (SPSS, Chicago, IL).

[Lys684]β-RNAP [13] = target: T3, [Lys684]β-RNAP; experiment: biochemical; conditions: GE-resistant RNAP [Lys684]β-RNAP

T6 sequence (Q8RQE8 whole entry): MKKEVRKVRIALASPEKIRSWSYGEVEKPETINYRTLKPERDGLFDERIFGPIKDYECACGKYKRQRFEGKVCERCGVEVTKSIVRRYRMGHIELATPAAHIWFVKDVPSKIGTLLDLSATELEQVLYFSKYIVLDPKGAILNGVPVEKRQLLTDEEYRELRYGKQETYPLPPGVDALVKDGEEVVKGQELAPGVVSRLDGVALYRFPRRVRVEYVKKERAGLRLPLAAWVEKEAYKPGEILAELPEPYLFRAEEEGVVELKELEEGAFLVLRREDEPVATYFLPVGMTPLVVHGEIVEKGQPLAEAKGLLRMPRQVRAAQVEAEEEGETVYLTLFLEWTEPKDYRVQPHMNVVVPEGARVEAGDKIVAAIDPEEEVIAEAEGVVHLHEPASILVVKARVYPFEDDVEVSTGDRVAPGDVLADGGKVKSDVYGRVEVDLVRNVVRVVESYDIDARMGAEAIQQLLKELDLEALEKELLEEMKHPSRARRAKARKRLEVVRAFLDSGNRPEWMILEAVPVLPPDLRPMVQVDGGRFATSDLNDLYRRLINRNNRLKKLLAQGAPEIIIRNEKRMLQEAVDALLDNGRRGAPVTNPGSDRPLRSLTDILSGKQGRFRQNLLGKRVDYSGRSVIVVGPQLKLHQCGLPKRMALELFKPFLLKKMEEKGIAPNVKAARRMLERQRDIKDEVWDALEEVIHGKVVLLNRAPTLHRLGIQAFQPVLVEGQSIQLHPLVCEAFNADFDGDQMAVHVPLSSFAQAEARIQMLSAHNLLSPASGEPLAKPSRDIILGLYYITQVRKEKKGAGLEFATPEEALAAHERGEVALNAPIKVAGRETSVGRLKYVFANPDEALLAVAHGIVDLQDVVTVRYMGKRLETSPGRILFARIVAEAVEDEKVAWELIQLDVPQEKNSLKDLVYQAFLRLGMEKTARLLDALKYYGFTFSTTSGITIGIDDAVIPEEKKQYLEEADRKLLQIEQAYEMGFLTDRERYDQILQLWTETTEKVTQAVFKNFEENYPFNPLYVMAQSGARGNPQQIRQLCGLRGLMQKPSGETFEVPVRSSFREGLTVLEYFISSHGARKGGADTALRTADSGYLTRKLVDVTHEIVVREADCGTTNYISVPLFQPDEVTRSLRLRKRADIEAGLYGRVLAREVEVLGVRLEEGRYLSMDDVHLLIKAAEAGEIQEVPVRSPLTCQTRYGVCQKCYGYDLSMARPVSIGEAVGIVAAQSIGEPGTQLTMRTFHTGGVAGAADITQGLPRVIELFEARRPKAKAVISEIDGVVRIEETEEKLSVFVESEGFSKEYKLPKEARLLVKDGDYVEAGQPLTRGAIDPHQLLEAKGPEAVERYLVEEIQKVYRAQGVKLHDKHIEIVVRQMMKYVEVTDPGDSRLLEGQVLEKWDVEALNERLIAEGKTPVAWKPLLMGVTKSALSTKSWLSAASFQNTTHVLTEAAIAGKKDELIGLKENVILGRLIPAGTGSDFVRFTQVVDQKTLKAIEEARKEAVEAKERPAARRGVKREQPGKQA
T6 sequence (Q8RQE9 whole entry): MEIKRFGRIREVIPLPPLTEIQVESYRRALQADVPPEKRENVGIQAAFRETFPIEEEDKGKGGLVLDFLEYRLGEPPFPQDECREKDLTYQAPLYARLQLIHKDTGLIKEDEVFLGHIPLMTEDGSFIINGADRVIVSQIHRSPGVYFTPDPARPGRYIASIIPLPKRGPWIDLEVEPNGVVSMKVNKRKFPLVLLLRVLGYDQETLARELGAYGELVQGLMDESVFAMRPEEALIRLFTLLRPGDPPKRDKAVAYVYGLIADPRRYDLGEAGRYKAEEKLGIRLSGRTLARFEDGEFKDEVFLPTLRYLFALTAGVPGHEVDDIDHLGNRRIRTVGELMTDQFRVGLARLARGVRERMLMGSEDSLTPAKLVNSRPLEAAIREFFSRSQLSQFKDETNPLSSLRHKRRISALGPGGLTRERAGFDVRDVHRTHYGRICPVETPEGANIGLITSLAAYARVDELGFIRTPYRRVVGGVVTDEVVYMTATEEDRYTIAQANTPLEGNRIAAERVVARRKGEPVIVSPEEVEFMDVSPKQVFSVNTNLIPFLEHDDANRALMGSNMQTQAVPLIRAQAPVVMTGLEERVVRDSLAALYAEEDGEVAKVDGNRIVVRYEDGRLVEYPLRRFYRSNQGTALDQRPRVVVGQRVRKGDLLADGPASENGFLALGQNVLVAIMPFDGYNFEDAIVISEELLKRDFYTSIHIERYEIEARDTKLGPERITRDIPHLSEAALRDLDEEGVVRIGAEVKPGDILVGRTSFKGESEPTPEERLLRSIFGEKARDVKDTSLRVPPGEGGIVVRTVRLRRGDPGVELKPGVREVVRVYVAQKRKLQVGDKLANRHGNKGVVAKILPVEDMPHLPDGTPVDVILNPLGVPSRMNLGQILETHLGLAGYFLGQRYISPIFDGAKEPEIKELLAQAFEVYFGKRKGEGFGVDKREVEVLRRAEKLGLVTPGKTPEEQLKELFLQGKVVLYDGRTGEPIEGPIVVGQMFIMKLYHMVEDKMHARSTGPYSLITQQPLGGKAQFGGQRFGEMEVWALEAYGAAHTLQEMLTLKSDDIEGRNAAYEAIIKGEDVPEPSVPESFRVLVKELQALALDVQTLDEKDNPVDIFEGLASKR

With `CC=C(C)C(=O)NCC1NC(=O)C(C(=O)O)NC(=O)C(O)CNC(=O)C(C(C)O)NC(=O)C(C(O)C(O)C(N)=O)NC(=O)C(C(C)C)NC(=O)C(CO)NC1=O` (stereo not shown) [GE, GE23077] the “fold decrease of kon for Rif by GE” value ([1]; saturating GE) was roughly 20 fold, the “fold increase of Kd for Rif by GE” value ([1]; saturating GE) was roughly 80 fold and the “fold increase of koff for Rif by GE” value ([1]; saturating GE) was “fourfold”. The Ki ([1]; wild-type RNAP, 24°C, read-out: Ki,GE, equilibrium dissociation constant for inhibition of RNAP-Rif interaction by GE) was 6 nM, the “inhibition of single nucleotide addition, reconstituted elongation complex” value (E. coli RNAP core enzyme) was “does not inhibit single nucleotide addition” and the Ki ([Asp565]β-RNAP) was greater than 2000 nM. The Ki ([Lys684]β-RNAP [2]) was greater than 2000 nM, the MICwild-type was 500 µg/mL and the IC50 [3] was 20 nM. The “inhibition of formation of RNAP-promoter open complex (RPo)” value (E. coli RNAP holoenzyme [4]) was “does not inhibit”, the MIC [5] was 250 µg/mL (≈ 311 µM) and the MIC [6] was 25 µg/mL (≈ 31.1 µM). The MIC [7] was 250 µg/mL (≈ 311 µM), the “inhibition of first nucleotide addition, de novo transcription initiation” value (E. coli RNAP holoenzyme [8]) was “inhibits the first nucleotide-addition step” and the “inhibition of first nucleotide addition, primer-dependent transcription initiation” value (E. coli RNAP holoenzyme [9]) was “inhibits the first nucleotide-addition step”. For the same compound, the “cross-resistance of Rif^R mutants to GE” value (E. coli D21f2tolC; Rif^R mutants) was “do not exhibit cross-resistance”, the “resistance, fold higher MIC, all six GE^R substitutions” value (E. coli D21f2tolC; all six GE^R substitutions) was “≥ fourfold” and the “inhibition of nucleotide addition in transcription elongation, halted elongation complex” value (E. coli RNAP holoenzyme [10]) was “does not inhibit transcription elongation”. For the same compound, the IC50 [11] was 20000 nM, the IC50 (Escherichia coli RNAP) was 20 nM and the IC50 [12] was 100 nM. For the same compound, the “resistance level (MIC/MICwild-type)” value (S. pyogenes; S. pyogenes rpoB 565 [525] Glu→Gly) was 32, the “resistance level (MIC/MICwild-type)” value (S. pyogenes; S. pyogenes rpoB 565 [525] Glu→Val) was 32 and the “resistance level (MIC/MICwild-type)” value (S. pyogenes; S. pyogenes rpoB 681 [643] Met→Lys) was 16. For the same compound, the “resistance level (MIC/MICwild-type)” value (S. pyogenes; S. pyogenes rpoB 684 [646] Asn→Ile) was greater than 32, the MICwild-type (S. pyogenes; wild-type S. pyogenes) was 250 µg/mL and the IC50 (Human RNAP I / II / III) was greater than 50000 nM. The IC50 ([Lys684]β-RNAP [13]) was greater than 400000 nM.
